Results from PubChem BioAssay (NCI).
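Each compound was tested at five concentrations against cells in 96-well plates for 48 hours. Abbreviation: GI50, concentration required for 50% inhibition of growth. TGI denotes the concentration required for complete inhibition of growth.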

Experiments:
Assay in all cases: NCI-60 cell line screen, 48 h
NCI-H460 lung = test system: NCI-H460 lung
RXF 393 renal = test system: RXF 393 renal
SK-MEL-2 melanoma = test system: SK-MEL-2 melanoma
UACC-62 melanoma = test system: UACC-62 melanoma
HCT-15 colon = test system: HCT-15 colon
UACC-257 melanoma = test system: UACC-257 melanoma
SN12C renal = test system: SN12C renal
CCRF-CEM leukemia = test system: CCRF-CEM leukemia
DU-145 prostate = test system: DU-145 prostate

| Compound | TGI (NCI-H460 lung) | TGI (RXF 393 renal) | TGI (SK-MEL-2 melanoma) | TGI (UACC-62 melanoma) | TGI (HCT-15 colon) | TGI (UACC-257 melanoma) | TGI (SN12C renal) | TGI (CCRF-CEM leukemia) | GI50 (NCI-H460 lung) | GI50 (DU-145 prostate) | TGI (DU-145 prostate) | GI50 (SK-MEL-2 melanoma) | GI50 (UACC-62 melanoma) | GI50 (HCT-15 colon) | GI50 (SN12C renal) | GI50 (CCRF-CEM leukemia) |
| --- | --- | --- | --- | --- | --- | --- | --- | --- | --- | --- | --- | --- | --- | --- | --- | --- |
| Cc1c(Cl)cccc1N1C(=O)C(Cl)=C(Cl)C1=O | > 100 µM | 97.2 µM | > 100 µM | > 100 µM | > 100 µM | > 100 µM | > 100 µM | 27.8 µM |  |  |  |  |  |  |  |  |
| O=C(NCCCCN=c1cccccc1NCCCCNC(=O)OCc1ccccc1)OCc1ccccc1 | 26.4 µM | 40.4 µM | 36.9 µM | 37.5 µM | 23.2 µM | 29.3 µM | 51.6 µM | 47.8 µM |  |  |  |  |  |  |  |  |
| O=C(Nc1cc(Cl)ccc1Cl)c1cc2cccc(Cl)c2oc1=O | > 100 µM | > 100 µM |  | > 100 µM | > 100 µM | > 100 µM | > 100 µM | > 100 µM |  |  |  |  |  |  |  |  |
| COc1ccc(/C(=N\NC(=O)C(N)=O)C(c2ccc(OC)cc2)C2(O)C(=O)Nc3c(Cl)cccc32)cc1 (stereo unspecified) | > 100 µM | > 100 µM | > 100 µM | > 100 µM |  | > 100 µM | > 100 µM | > 100 µM |  |  |  |  |  |  |  |  |
| CC(=O)n1c2c(c(=O)n1-c1ccccc1)S(=O)CCC2 (stereo unspecified) | > 100 µM | > 68.4 µM | > 100 µM | > 100 µM | > 100 µM | > 100 µM | > 100 µM | 26.4 µM |  |  |  |  |  |  |  |  |
| CCOC(=O)NC(=O)c1cn(CCOC(=O)NCCCCCCNC(=O)OCCn2cc(C(=O)NC(=O)OCC)c(=O)[nH]c2=O)c(=O)[nH]c1=O | > 100 µM | > 100 µM | > 100 µM | > 100 µM | > 100 µM | > 100 µM | > 100 µM | > 100 µM |  |  |  |  |  |  |  |  |
| CCOC(=O)C(C)(C)Oc1ccc2c(C)c(-c3ccc(Cl)cc3)c(=O)oc2c1 | > 100 µM | > 100 µM | > 100 µM | > 100 µM | > 100 µM | > 100 µM | > 100 µM | > 100 µM |  |  |  |  |  |  |  |  |
| COC1[C@@H](OC(C)=O)[C@@H](NC(=O)C(Cl)(Cl)Cl)C(I)[C@@H](N2C(=O)c3ccccc3C2=O)[C@H]1OC (stereo partly specified) | > 100 µM | > 100 µM |  | > 100 µM | > 100 µM | > 100 µM | > 100 µM | > 100 µM |  |  |  |  |  |  |  |  |
| c1ccc(SC2CCSc3ccccc3C2Sc2ccccc2)cc1 (stereo unspecified) | > 100 µM |  |  |  | > 100 µM | > 100 µM | > 100 µM | > 100 µM |  |  |  |  |  |  |  |  |
| COc1ccccc1N1CCN(CCCn2c(=O)c3c(OC)nc(C)cc3c(=O)n2-c2ccccc2)CC1 | > 100 µM |  | > 100 µM | > 100 µM | > 100 µM |  | > 100 µM | > 100 µM | > 100 µM | > 100 µM | > 100 µM | > 100 µM | > 100 µM | > 100 µM | > 100 µM | > 100 µM |
| CCOc1ccc2c(c1)[n+]([O-])c(-c1ccccc1Cl)c(N)[n+]2[O-] | > 100 µM | > 100 µM | > 100 µM |  |  | > 100 µM | > 100 µM | > 100 µM |  |  |  |  |  |  |  |  |
| CC(=O)OC12c3ccccc3-c3ccccc3C1C1C(=O)N(C)C(=O)C12Cl (stereo unspecified) | > 10 µM | > 10 µM | > 10 µM |  | > 10 µM | > 10 µM | > 10 µM | > 10 µM |  |  | > 10 µM |  |  |  |  |  |
| COC(=O)[C@]1(C)CCCC2(C)C1CC[C@H]1C=C(C)[C@H]3CCC12C3 (stereo partly specified) | > 100 µM | > 100 µM |  | > 100 µM | > 100 µM | > 100 µM | > 100 µM | > 100 µM |  |  |  |  |  |  |  |  |
